Measured values from the NIST ThermoML archive (doi:10.1021/je2006743).
Numbers after ± are expanded uncertainties.

Conditions: 101.33 kPa, Liquid; for mass density: Vibrating tube method; for viscosity: Falling or rolling sphere viscometry

SMILES | viscosity (293.15 K) | viscosity (303.15 K) | mass density (313.14 K) | viscosity (313.15 K) | mass density (323.13 K) | viscosity (323.15 K) | viscosity (333.15 K) | viscosity (343.15 K) | mass density (333.16 K) | other results
CCCCCC[n+]1cccc(C)c1.O=S(=O)([N-]S(=O)(=O)C(F)(F)F)C(F)(F)F | 105 ± 5 mPa·s | 64.2 ± 2.7 mPa·s | 1338.4 ± 0.7 kg/m3 | 41.2 ± 1.7 mPa·s | 1329.7 ± 0.7 kg/m3 | 28.3 ± 1.2 mPa·s | 22.5 ± 0.9 mPa·s | 17.5 ± 0.7 mPa·s | – | mass density (293.14 K): 1356.1 ± 0.7 kg/m3; mass density (303.17 K): 1347.1 ± 0.7 kg/m3; mass density (333.22 K): 1321 ± 0.7 kg/m3; mass density (343 K): 1312.9 ± 0.6 kg/m3
CCCC[N+](C)(C)C.O=S(=O)([N-]S(=O)(=O)C(F)(F)F)C(F)(F)F [butyltrimethylammonium bis(trifluoromethylsulfonyl)imide] | 138 ± 7 mPa·s | 82.3 ± 3.7 mPa·s | – | 52.2 ± 2.2 mPa·s | 1370 ± 0.7 kg/m3 | 35.5 ± 1.5 mPa·s | 27.9 ± 1.2 mPa·s | 21.5 ± 0.9 mPa·s | – | mass density (293.26 K): 1396.5 ± 0.7 kg/m3; mass density (303.22 K): 1387.6 ± 0.7 kg/m3; mass density (313.03 K): 1379 ± 0.7 kg/m3; mass density (333.17 K): 1361.3 ± 0.7 kg/m3; mass density (343.18 K): 1352.8 ± 0.7 kg/m3
CCC[N+](C)(C)CCO.O=S(=O)([N-]S(=O)(=O)C(F)(F)F)C(F)(F)F | 160 ± 9 mPa·s | 92.7 ± 4.3 mPa·s | – | 58.1 ± 2.4 mPa·s | – | 38.7 ± 1.6 mPa·s | 30.3 ± 1.3 mPa·s | 22.9 ± 1 mPa·s | 1418.1 ± 0.8 kg/m3 | mass density (293.16 K): 1453.6 ± 0.8 kg/m3; mass density (303.16 K): 1444.5 ± 0.8 kg/m3; mass density (313.11 K): 1435.7 ± 0.8 kg/m3; mass density (323.14 K): 1426.8 ± 0.8 kg/m3; mass density (343.14 K): 1408.7 ± 0.8 kg/m3
O=S(=O)([N-]S(=O)(=O)C(F)(F)F)C(F)(F)F.OCCC[n+]1ccccc1 | 160 ± 9 mPa·s | 92.2 ± 4.3 mPa·s | 1532.1 ± 2.8 kg/m3 | 57.7 ± 2.5 mPa·s | – | 38.2 ± 1.6 mPa·s | 29.4 ± 1.2 mPa·s | 22.8 ± 1 mPa·s | 1513.8 ± 2.7 kg/m3 | mass density (293.15 K): 1551 ± 2.8 kg/m3; mass density (303.24 K): 1541.7 ± 2.8 kg/m3; mass density (323.15 K): 1522.9 ± 2.7 kg/m3; mass density (343.13 K): 1504.7 ± 2.7 kg/m3
CCCC[N+]1(C)CCCC1.O=S(=O)([N-]S(=O)(=O)C(F)(F)F)C(F)(F)F | 101 ± 5 mPa·s | 63.8 ± 2.7 mPa·s | – | 41.8 ± 1.7 mPa·s | – | 28.9 ± 1.2 mPa·s | 23.5 ± 1 mPa·s | 18.6 ± 0.8 mPa·s | – | mass density (293.09 K): 1398 ± 0.7 kg/m3; mass density (302.89 K): 1389.2 ± 0.7 kg/m3; mass density (313.59 K): 1379.8 ± 0.7 kg/m3; mass density (323.38 K): 1371.3 ± 0.7 kg/m3; mass density (332.57 K): 1363.1 ± 0.7 kg/m3; mass density (342.84 K): 1354.6 ± 0.7 kg/m3
CC(=O)OCC[N+](C)(C)C.O=S(=O)([N-]S(=O)(=O)C(F)(F)F)C(F)(F)F | 309 ± 22 mPa·s | 162 ± 9 mPa·s | – | 90.7 ± 4.2 mPa·s | – | 56.8 ± 2.4 mPa·s | 38.5 ± 1.6 mPa·s | 27.5 ± 1.2 mPa·s | – | mass density (293.18 K): 1486.9 ± 2.6 kg/m3; mass density (303.19 K): 1477.3 ± 2.6 kg/m3; mass density (313.21 K): 1468 ± 2.5 kg/m3; mass density (323.16 K): 1458.8 ± 2.5 kg/m3; mass density (333.19 K): 1449.7 ± 2.5 kg/m3; mass density (343.21 K): 1440.5 ± 2.4 kg/m3
